Test [1] relates to Calf thymus DNA. The test is described as follows: Binding affinity to calf thymus duplex DNA assessed as red shift in soret peak at 50 uM in pH 7 phosphate buffer by UV-vis spectrophotometric analysis. It is filed as nucleic-acid assay. The conditions noted are these: Bos taurus.
The test system of test [2] is Calf thymus DNA. In words: Binding affinity to calf thymus duplex DNA assessed as induction of hyperchromic shift at 257 nanometer at 50 uM in pH 7 phosphate buffer by UV-vis spectrophotometric analysis. It is filed as nucleic-acid assay. The settings on record: Bos taurus.
The subject of test [3] is Calf thymus DNA. The test is described as follows: Binding affinity to calf thymus duplex DNA assessed as change in melting temperature at 50 uM in pH 7 phosphate buffer by UV-vis spectrophotometric analysis. It is filed as nucleic-acid assay. The conditions noted are these: Bos taurus.
Test [4] deals with Calf thymus DNA. In words: Binding affinity to calf thymus duplex DNA assessed as induction of ellipticity at 350 nanometer at 25 to 200 uM in pH 7 phosphate buffer by circular dichroism method. It is filed as nucleic-acid assay. The settings on record: Bos taurus. Background: Circular dichroism is the unequal absorption of left and right circularly polarised light.
The test system of test [5] is Calf thymus DNA. The test is described as follows: Binding affinity to calf thymus duplex DNA assessed as melting temperature at 0.5 mM by differential scanning calorimetry (reference value: 51 degC). The settings on record: Bos taurus. It is filed as nucleic-acid assay. (Differential scanning calorimetry records heat flow against a reference as temperature is scanned.)

In test [6] the test system is Calf thymus DNA. The test is described as follows: Binding affinity to calf thymus duplex DNA assessed as change in melting temperature at 2.5 uM in pH 7 phosphate buffer by UV-vis spectrophotometric analysis. It is filed as nucleic-acid assay. The conditions noted are these: Bos taurus.
Test [7] has as its system Calf thymus DNA. The test is described as follows: Binding affinity to calf thymus duplex DNA assessed as induction of ellipticity at 2.5 to 63 uM in pH 7 phosphate buffer by circular dichroism method. It is filed as nucleic-acid assay. The conditions noted are these: Bos taurus.
For test [8], the system named is Calf thymus DNA. The test is described as follows: Binding affinity to calf thymus duplex DNA assessed as induction of hyperchromicity at 25 to 200 uM in pH 7 phosphate buffer by circular dichroism method. The settings on record: Bos taurus. It is filed as nucleic-acid assay.
Test [9] has as its system Calf thymus DNA. In words: Binding affinity to calf thymus duplex DNA assessed as induction of hyperchromic shift at 257 nanometer at 75 uM in pH 7 phosphate buffer by UV-vis spectrophotometric analysis. It is filed as nucleic-acid assay. The conditions noted are these: Bos taurus.
For test [10], the system named is Calf thymus DNA. In words: Binding affinity to calf thymus duplex DNA assessed as induction of red shift in soret peak at 75 uM in pH 7 phosphate buffer by UV-vis spectrophotometric analysis. It is filed as nucleic-acid assay. The conditions noted are these: Bos taurus.
The test system of test [11] is Calf thymus DNA. The test is described as follows: Binding affinity to calf thymus duplex DNA assessed as induction of hyperchromic shift at 257 nanometer at 50 uM in pH 8.9 phosphate buffer by UV-vis spectrophotometric analysis. The conditions noted are these: Bos taurus. It is filed as nucleic-acid assay.
The subject of test [12] is Calf thymus DNA. The test is described as follows: Binding affinity to calf thymus duplex DNA assessed as induction of hyperchromic shift at 257 nanometer at 50 uM in pH 5.4 phosphate buffer by UV-vis spectrophotometric analysis. It is filed as nucleic-acid assay. The settings on record: Bos taurus.
In test [13] the test system is Calf thymus DNA. In words: Binding affinity to calf thymus duplex DNA assessed as induction of red shift in soret peak at 50 uM in pH 8.9 phosphate buffer by UV-vis spectrophotometric analysis. It is filed as nucleic-acid assay. The conditions noted are these: Bos taurus.
Test [14] has as its system Calf thymus DNA. The test is described as follows: Binding affinity to calf thymus duplex DNA assessed as induction of red shift in soret peak at 50 uM in pH 5.4 phosphate buffer by UV-vis spectrophotometric analysis. The settings on record: Bos taurus. It is filed as nucleic-acid assay.
The species named for test [15] is Bos taurus. In words: Binding affinity to calf thymus GC-rich duplex DNA assessed as induction of hyperchromicity at 25 to 200 uM in pH 7 phosphate buffer by circular dichroism method.
The species named for test [16] is Bos taurus. The test is described as follows: Binding affinity to calf thymus AT-rich duplex DNA assessed as induction of hyperchromicity at 25 to 200 uM in pH 7 phosphate buffer by circular dichroism method.
In test [17] the test system is Calf thymus DNA. The test is described as follows: Binding affinity to calf thymus duplex DNA assessed as induction of red shift at 280 nanometer at 25 to 200 uM in pH 7 phosphate buffer by circular dichroism method. It is filed as nucleic-acid assay. The settings on record: Bos taurus.
Test [18] concerns Calf thymus DNA. In words: Binding affinity to calf thymus duplex DNA assessed as induction of hyperchromicity at 280 nanometer at 25 to 200 uM in pH 7 phosphate buffer by circular dichroism method. The settings on record: Bos taurus. It is filed as nucleic-acid assay.
In test [19] the test system is Calf thymus DNA. In words: Binding affinity to calf thymus duplex DNA assessed as induction of ellipticity at 25 to 200 uM in pH 5.4 phosphate buffer by circular dichroism method. It is filed as nucleic-acid assay. The conditions noted are these: Bos taurus.
For test [20], the species on record is Bos taurus. The test is described as follows: Binding affinity to calf thymus GC-rich duplex DNA assessed as induction of ellipticity at 25 to 200 uM in pH 7 phosphate buffer by circular dichroism method.
The species entered for test [21] is Bos taurus. The test is described as follows: Binding affinity to calf thymus AT-rich duplex DNA assessed as induction of ellipticity at 25 to 200 uM in pH 7 phosphate buffer by circular dichroism method.
Test [22] concerns Calf thymus DNA. In words: Binding affinity to calf thymus duplex DNA assessed as induction of ellipticity at 25 to 200 uM in pH 7 phosphate buffer in presence of 0.1 M NaCl by circular dichroism method. The settings on record: Bos taurus. It is filed as nucleic-acid assay.
For test [23], the system named is Calf thymus DNA. The test is described as follows: Binding affinity to calf thymus duplex DNA assessed as induction of ellipticity at 25 to 200 uM in pH 8.9 phosphate buffer by circular dichroism method. It is filed as nucleic-acid assay. The conditions noted are these: Bos taurus.
In test [24] the test system is Calf thymus DNA. In words: Binding affinity to calf thymus duplex DNA assessed as induction of ellipticity at 349 nanometer at 25 to 200 uM in pH 7 phosphate buffer by circular dichroism method. It is filed as nucleic-acid assay. The settings on record: Bos taurus.
Test [25] relates to Calf thymus DNA. In words: Binding affinity to calf thymus duplex DNA assessed as melting temperature at 1 mM by differential scanning calorimetry (reference value: 51 degC). It is filed as nucleic-acid assay. The conditions noted are these: Bos taurus.
Test [26] deals with Calf thymus DNA. The test is described as follows: Binding affinity to calf thymus duplex DNA assessed as melting temperature at 5 mM by differential scanning calorimetry (reference value: 51 degC). The conditions noted are these: Bos taurus. It is filed as nucleic-acid assay.
Test [27] deals with Calf thymus DNA. The test is described as follows: Binding affinity to calf thymus duplex DNA assessed as increase in melting temperature by differential scanning calorimetry. It is filed as nucleic-acid assay. The settings on record: Bos taurus.

Activity calls are given as the source filed them. The calls are words filed in the database; no cut-off is given here.

Broadly, the ΔTm is the shift of the melting midpoint relative to a reference. Usually Tm stands for the temperature at which the thermal transition is half complete. For the compound `Cc1nccc2c1[nH]c1ccccc12`, the result in the test on Calf thymus DNA [1] and with Calf thymus DNA [2] was Active. For the same compound, the ΔTm with Calf thymus DNA [3] is 4 °C. Also, the result with Calf thymus DNA [4] was inactive. Further, the Tm with Calf thymus DNA [5] is 65 °C.
Consider `CC[n+]1c(-c2ccccc2)c2cc(N)ccc2c2ccc(N)cc21`, for which, in the test on Calf thymus DNA [6], the ΔTm was determined as 8.9 °C. Further, the result in the test on Calf thymus DNA [7] was Active. Moreover, the Tm in the test with Calf thymus DNA [5] was found to be 75 °C.
With `C[n+]1ccc2c([nH]c3ccccc32)c1-c1c[nH]c2ccccc12`, the outcome in the test with Calf thymus DNA [4] and in the test with Calf thymus DNA [8] was inactive.
Turning to `c1ccc2c(c1)[nH]c1cnccc12`, the outcome in the test with Calf thymus DNA [9] and in the test on Calf thymus DNA [10] was Active. Besides, in the test with Calf thymus DNA [4], the outcome was inactive.
`c1ccc2c(-c3nccc4c3[nH]c3ccccc34)c[nH]c2c1`: the Activity in the test on Calf thymus DNA [1] was 20 nm; in the test on Calf thymus DNA [27], “Dose-dependent effect”. In addition, the result with Calf thymus DNA [2], in the test with Calf thymus DNA [11], with Calf thymus DNA [12], with Calf thymus DNA [13], in the test on Calf thymus DNA [14] and in the test with Calf thymus DNA [17] was Active. The result in the test with Calf thymus DNA [18], with Calf thymus DNA [19], with Calf thymus DNA [22] and in the test with Calf thymus DNA [24] was Active. Further, the ΔTm with Calf thymus DNA [3] was 2.3 °C. The result in the test listed under Bos taurus [15], in the test filed under Bos taurus [16], in the test listed under Bos taurus [20], in the test listed under Bos taurus [21] and in the test on Calf thymus DNA [23] was inactive. Further, the Tm in the test with Calf thymus DNA [25] was 56 to 67 °C; in the test on Calf thymus DNA [26], 67 °C.

Source of the values: ChEMBL document CHEMBL4431382, “DNA-binding studies of the natural β-carboline eudistomin U” (Bioorg Med Chem Lett, 2016).
